This note sets out measurements from patent US11857535B2, “Methods of treating mutant lymphomas” (Kymera Therapeutics, Inc., priority 2020, dated 2024).

The target in this test is T1, IRAK4 (Homo sapiens, UniProt Q9NWZ3).
T1 construct: endogenous in cells; host or cells: OCI-Ly10
T1 sequence (Q9NWZ3 1-460): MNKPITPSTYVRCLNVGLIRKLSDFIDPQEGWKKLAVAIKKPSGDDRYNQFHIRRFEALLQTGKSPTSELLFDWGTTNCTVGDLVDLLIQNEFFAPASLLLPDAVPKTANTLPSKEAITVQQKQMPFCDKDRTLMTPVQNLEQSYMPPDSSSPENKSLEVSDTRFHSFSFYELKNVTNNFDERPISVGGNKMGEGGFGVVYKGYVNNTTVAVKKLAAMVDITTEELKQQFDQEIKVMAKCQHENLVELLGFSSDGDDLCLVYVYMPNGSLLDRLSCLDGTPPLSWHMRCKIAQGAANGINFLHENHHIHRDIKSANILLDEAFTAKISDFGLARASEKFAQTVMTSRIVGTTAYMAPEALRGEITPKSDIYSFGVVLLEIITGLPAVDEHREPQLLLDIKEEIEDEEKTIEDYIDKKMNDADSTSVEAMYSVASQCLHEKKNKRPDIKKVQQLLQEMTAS
Description: IRAK4 MSD degradation in OCI-Ly10. The following applies: FIG. 1. The format is cell-based. The method, then: Degradation of IRAK4 in OCI-Ly10 was quantitatively measured using Meso Scale Discovery technology. OCI-Ly10 cells were seeded in 96-well plates (Corning 3799) with a density of 300,000 cells per well in 100 μL fresh media. Compounds were then added to the assay plates with a final top concentration of 1 to 10 μM in a 1:3 dilution series with total of 8 doses. The assay plates were then incubated for 4 to 24 hours at 37° C. under 5% CO2. The assay plates were then centrifuged for 5 minutes and the cell pellets were treated with 100 μL/well RIPA lysis buffer (Boston BioProducts BP-115D) with proteinase inhibitors. To prepare MSD assay plates (Meso Scale Discovery Catalog number L15XA-3), the plates were coated with 2 μg/mL capture antibody (mouse Anti-IRAK4 antibody [2H9], ab119942) in PBS, at 40 μL/well. The plates were then incubated overnight at 4° C., washed 3 times with 150 μL/well TBST buffer (Cell Signaling Technology, Catalog number 9997S) and blocked with 150 μL/well blocking buffer (Meso Scale Discovery Catalog number R93BA-4). Cell lysates were then added to MSD assay plates and the plates were incubated at room temperature for 1 hour. The plates were then washed 3 times with 150 μL/well TBST buffer and […] primary detection antibody (rabbit Anti-IRAK4 antibody [Y279], from Abcam. Catalog number ab32511, 1 μg/mL). The assay plates were then incubated at room temperature for 1 hour, washed 3 times with 150 μL/well TBST buffer and 25 μL/well secondary detection antibody, SULFO-TAG anti-rabbit antibody were added (anti rabbit antibody from Meso Scale Discovery, Catalog number R32AB-1, 1 μg/mL). The assay plates were then incubated at room temperature for 1 hour, washed 3 times with 150 μL/well TBST buffer, and 150 μL/well MSD reading buffer (Meso Scale Discovery catalog number R92TC-2) was added. The plates were then analyzed by a MSD reader (Meso Scale Discovery, Model Quick Plex SQ 120). The data was then analyzed by software Prism 7.0 from GraphPad and the dose-depended IRAK4 degradation were fit using a three-parameter logistic equation to calculate DC50.

As for `CC(C)(O)c1cc2nc([C@H]3CC[C@H](CN4CC5(CC(CCNc6cccc7c6C(=O)N(C6CCC(=O)NC6=O)C7=O)C5)C4)CC3)sc2cc1NC(=O)c1cccc(C(F)(F)F)n1` (stereo partly shown) [Compound A, N-(2-((1r,4r)-4-((6-(2-((2-(2,6-dioxopiperidin-3-yl)-1,3-dioxoisoindolin-4-yl)amino)ethyl)-2-azaspiro[3.3]heptan-2-yl)methyl)cyclohexyl)-5-(2-hydroxypropan-2-yl)benzo[d]thiazol-6-yl)-6-(trifluoromethyl)picolinamide], the “IRAK4 degradation associated with CTG IC90” value is reported as “approximately 70%”.
